Test results reported in the NIST ThermoML archive (doi:10.1021/acs.jced.9b00442).

Columns and labels:
[1] = 100 kPa, Liquid; for electrical conductivity: Frequency=0.0006 MHz, Alternating current cell with electrodes; for viscosity: Concentric cylinders viscometry; for mass density: Vibrating tube method
[2] = refractive index (Na D-line) (dimensionless); conditions: 100 kPa, Liquid, Standard Abbe refractometry

CC[N+](C)(C)CCCO.O=S(=O)([N-]S(=O)(=O)C(F)(F)F)C(F)(F)F
Conditions | electrical conductivity [S/m] | mass density [kg/m3] | refractive index | viscosity [mPa·s]
[1], 283.15 K | 0.049 | – | – | –
[1], 288.15 K | 0.069 | 1472.2 | – | 314
[1], 289.15 K | – | 1471.4 | – | –
[1], 290.15 K | – | 1470.5 | – | –
[1], 291.15 K | – | 1469.6 | – | –
[1], 292.15 K | – | 1468.7 | – | –
[1], 293.15 K | 0.095 | 1467.8 | – | 220.1
[1], 294.15 K | – | 1466.9 | – | –
[1], 295.15 K | – | 1466.1 | – | –
[1], 296.15 K | – | 1465.2 | – | –
[1], 297.15 K | – | 1464.3 | – | –
[1], 298.15 K | 0.125 | 1463.4 | – | 166
[1], 299.16 K | – | 1462.5 | – | –
[1], 300.16 K | – | 1461.7 | – | –
[1], 301.15 K | – | 1460.8 | – | –
[1], 302.15 K | – | 1459.9 | – | –
[1], 303.15 K | 0.162 | 1459 | – | 125.4
[1], 304.15 K | – | 1458.2 | – | –
[1], 305.15 K | – | 1457.3 | – | –
[1], 306.15 K | – | 1456.4 | – | –
[1], 307.15 K | – | 1455.5 | – | –
[1], 308.15 K | 0.204 | 1454.7 | – | 96.7
[1], 309.15 K | – | 1453.8 | – | –
[1], 310.15 K | – | 1452.9 | – | –
[1], 311.15 K | – | 1452 | – | –
[1], 312.15 K | – | 1451.2 | – | –
[1], 313.15 K | 0.253 | 1450.3 | – | 76.8
[1], 314.15 K | – | 1449.4 | – | –
[1], 315.15 K | – | 1448.6 | – | –
[1], 316.15 K | – | 1447.7 | – | –
[1], 317.15 K | – | 1446.8 | – | –
[1], 318.15 K | 0.309 | 1446 | – | 60.9
[1], 319.15 K | – | 1445.1 | – | –
[1], 320.15 K | – | 1444.2 | – | –
[1], 321.15 K | – | 1443.4 | – | –
[1], 322.15 K | – | 1442.5 | – | –
[1], 323.15 K | 0.371 | 1441.6 | – | 49.5
[1], 324.15 K | – | 1440.8 | – | –
[1], 325.15 K | – | 1439.9 | – | –
[1], 326.15 K | – | 1439 | – | –
[1], 327.15 K | – | 1438.2 | – | –
[1], 328.15 K | – | 1437.3 | – | 40.8
[1], 329.15 K | – | 1436.4 | – | –
[1], 330.15 K | – | 1435.6 | – | –
[1], 331.15 K | – | 1434.7 | – | –
[1], 332.15 K | – | 1433.9 | – | –
[1], 333.15 K | – | 1433 | – | 34.5
[1], 334.15 K | – | 1432.1 | – | –
[1], 335.16 K | – | 1431.3 | – | –
[1], 336.15 K | – | 1430.4 | – | –
[1], 337.15 K | – | 1429.6 | – | –
[1], 338.15 K | – | 1428.7 | – | 28.8
[1], 339.15 K | – | 1427.8 | – | –
[1], 340.15 K | – | 1427 | – | –
[1], 341.15 K | – | 1426.1 | – | –
[1], 342.15 K | – | 1425.3 | – | –
[1], 343.15 K | – | 1424.4 | – | 24.6
[1], 344.15 K | – | 1423.6 | – | –
[1], 345.15 K | – | 1422.7 | – | –
[1], 346.15 K | – | 1421.9 | – | –
[1], 347.15 K | – | 1421 | – | –
[1], 348.15 K | – | 1420.1 | – | 21.2
[1], 349.15 K | – | 1419.3 | – | –
[1], 350.15 K | – | 1418.4 | – | –
[1], 351.15 K | – | 1417.6 | – | –
[1], 352.15 K | – | 1416.7 | – | –
[1], 353.15 K | – | 1415.9 | – | 18.7
[1], 354.15 K | – | 1415 | – | –
[1], 355.15 K | – | 1414.2 | – | –
[1], 356.15 K | – | 1413.3 | – | –
[1], 357.15 K | – | 1412.5 | – | –
[1], 358.15 K | – | 1411.7 | – | 16.2
[1], 359.15 K | – | 1410.8 | – | –
[1], 360.15 K | – | 1410 | – | –
[1], 361.15 K | – | 1409.1 | – | –
[1], 362.16 K | – | 1408.3 | – | –
[1], 363.15 K | – | 1407.4 | – | 14.3
[2], 283.15 K | – | – | 1.4253 | –
[2], 288.15 K | – | – | 1.4241 | –
[2], 293.15 K | – | – | 1.4228 | –
[2], 298.15 K | – | – | 1.4215 | –
[2], 303.15 K | – | – | 1.4203 | –
[2], 308.15 K | – | – | 1.419 | –
[2], 313.15 K | – | – | 1.4176 | –
[2], 318.15 K | – | – | 1.4164 | –
[2], 323.15 K | – | – | 1.4151 | –
[2], 328.15 K | – | – | 1.4139 | –
[2], 333.15 K | – | – | 1.4126 | –
[2], 338.15 K | – | – | 1.4114 | –
[2], 343.15 K | – | – | 1.4101 | –
[2], 348.15 K | – | – | 1.4089 | –
[2], 353.15 K | – | – | 1.4076 | –
[2], 358.15 K | – | – | 1.4064 | –
